Reference: US20240199640A1, “NEGATIVE ALLOSTERIC MODULATORS OF METABOTROPIC GLUTAMATE RECEPTOR 2” (priority 2021, published 2024)
Like-named read-outs stand apart in the source and are kept apart here.

Tests used:
[1] = system: central mGlu2 and mGlu3 receptors; conditions: in vivo; cited from earlier work
C57Bl6/J mice = conditions: cited from earlier work
Helpless (H) mice = conditions: cited from earlier work; for activity in the tail suspension test: Helpless (H) mice
[2] = system: Aβ-induced neurodegeneration; conditions: cited from earlier work
rat = conditions: normal animals; cited from earlier work
mouse = conditions: normal animals; cited from earlier work
mice = conditions: treated mice; cited from earlier work
[3] = conditioned fear stress; cited from earlier work
group II mGlu receptors = conditions: cited from earlier work
[4] = treatment for 7 days; cited from earlier work
[5] = system: olfactory bulbectomized rats; conditions: repeated administration for 14 days; cited from earlier work
[6] = system: social isolation-reared mice; conditions: cited from earlier work
human mGlu2 = target: T1, human mGlu2 (Homo sapiens, UniProt Q14416); experiment: mGlu GIRK cell-based thallium flux assay, human mGlu2; conditions: HEK-293 cells co-expressing human mGlu2 and GIRK; EC80 glutamate; Tl flux
T1 construct: expressed in transfected cells; host or cells: HEK-293
Experimental: The day before the assay, GIRK cells co-expressing human mGlu3, human or rat mGlu2, as described above, were plated in black-walled, clear-bottomed, amine-coated 384-well plates at a density of 15,000 cells/20 μL/well in the assay medium (glutamine-depleted basal DMEM supplemented with 10% dialyzed FBS, 20 mM HEPES, 1 mM sodium pyruvate). Cells were incubated at 37° C. in the presence of 5% CO2. […] Cells were washed with assay buffer using a microplate washer to remove the medium, resulting in 20 μL of buffer remaining in each well. Immediately, 20 μL of 2× Thallos dye solution was added to cells, and incubated for one hour at 25° C. During the cell dye loading incubation period, a 10-point concentration serial dilution of compound was created from a 10 mM DMSO compound stock by performing a 1:3 serial dilution in DMSO using the Bravo liquid handler. The 2× compound plate was generated by transferring 0.24 μL of the diluted compound in each well to a daughter plate using an Echo acoustic liquid handler.
(§1) After dye-loading, cell plates were washed with assay buffer to remove excess extracellular dye using a microplate washer, resulting in 20 μL of buffer remaining in each well. After a ten-minute equilibration period, cell, compound and agonist plates were loaded into a Hamamatsu μCell kinetic imaging plate reader equipped with liquid handler to monitor fluorescence changes at 480 nm excitation and 540 nm emission settings. Briefly, after collection of baseline fluorescence, 20 μL of compound was added and incubated for two minutes and twenty seconds. This is immediately followed by adding 10 μL of glutamate-thallium buffer to the wells containing compound. The fluorescent signal was monitored an additional 2.5 minutes after the glutamate addition. Multiple reference wells containing no compound received either no glutamate (for a baseline reference), […] glutamate, or ECmax glutamate (for normalization to maximum response). Fluorescence was measured throughout the experiment at a frequency of 1 measurement per every 2 seconds before the glutamate addition and a frequency of 1 measurement per every 1 second after the glutamate addition. Each compound concentration series occurred one time in each plate, and replicates from two or three plates were used in each experimental run. Thallium solutions were handled and disposed of according to guidelines from the Vanderbilt University Chemical Safety department.
Data were normalized using a static ratio function (F/F0) by dividing every fluorescent measurement by the initial fluorescent value for the corresponding well. The increase in signal resulting from the glutamate/thallium addition of the second add was measured by determining the slope from 3 seconds to 13 seconds after the addition. The average of all baseline slopes (no compound, no glutamate) was determined and this value was subtracted from all other slope values. The average of all ECmax slopes was determined and this value was used to normalize the baseline-corrected slopes to a percent max value (% Emax). The % Emax values for each compound series were plotted versus the log of the concentration and fit to a 4-parameter logistical equation with no fixed parameters.
Potency is reported as the IC50 resulting from the curve fit.

human mGlu3 = target: T2, human mGlu3 (Homo sapiens, UniProt Q14832); experiment: mGlu GIRK cell-based thallium flux assay, human mGlu3; conditions: HEK-293 cells co-expressing human mGlu3 and GIRK; EC80 glutamate; Tl flux
T2 construct: expressed in transfected cells; host or cells: HEK-293
Experimental: Human embryonic kidney (HEK-293) cell lines stably co-expressing human or rat mGlu2 and G protein-coupled inwardly rectifying potassium (GIRK) channels, or human mGlu3 and GIRK, were used for in vitro evaluation of compound activity in thallium flux assay using a fluorescent thallium indicator dye.
The day before the assay, GIRK cells co-expressing human mGlu3, human or rat mGlu2, as described above, were plated in black-walled, clear-bottomed, amine-coated 384-well plates at a density of 15,000 cells/20 μL/well in the assay medium (glutamine-depleted basal DMEM supplemented with 10% dialyzed FBS, 20 mM HEPES, 1 mM sodium pyruvate). Cells were incubated at 37° C. in the presence of 5% CO2. The next day, assay buffer (Hanks balanced salt solution, 20 mM HEPES, 4.16 mM sodium bicarbonate, pH 7.2) was prepared to dilute compounds and Thallos AM fluorescent dye solution. The 2× Thallos dye solution (final concentration 0.34 μM to the cells) was prepared by mixing the dye stock (2.97 mM in DMSO) to 1:1 with 10% pluronic acid before adding to the assay buffer. Cells were washed with assay buffer using a microplate washer to remove the medium, resulting in 20 μL of buffer remaining in each well. Immediately, 20 μL of 2× Thallos dye solution was added to cells, and incubated for one hour at 25° C. During the cell dye loading incubation period, a 10-point concentration serial dilution of compound was created from a 10 mM DMSO compound stock by performing a 1:3 serial dilution in DMSO using the Bravo liquid handler. The 2× compound plate was generated by transferring 0.24 μL of the diluted compound in each well to a daughter plate using an Echo acoustic liquid handler. This is further diluted in 40 μL assay buffer, resulting in a range from 30 μM to 1.5 nM final concentration in the assay. The agonist plate (5×) was prepared to include EC80 glutamate concentration (a concentration to elicit 80% of a maximally effective glutamate concentration) in thallium buffer (125 mM […], 1 mM magnesium sulfate, 1.8 mM calcium sulfate, 5 mM glucose, 10 mM HEPES, pH 7.2, 12.5 mM thallium sulfate).
as §1
Data were normalized using a static ratio function (F/F0) by dividing every fluorescent measurement by the initial fluorescent value for the corresponding well. The increase in signal resulting from the glutamate/thallium addition of the second add was measured by determining the slope from 3 seconds to 13 seconds after the addition. […]

T1 sequence (Q14416 19-872): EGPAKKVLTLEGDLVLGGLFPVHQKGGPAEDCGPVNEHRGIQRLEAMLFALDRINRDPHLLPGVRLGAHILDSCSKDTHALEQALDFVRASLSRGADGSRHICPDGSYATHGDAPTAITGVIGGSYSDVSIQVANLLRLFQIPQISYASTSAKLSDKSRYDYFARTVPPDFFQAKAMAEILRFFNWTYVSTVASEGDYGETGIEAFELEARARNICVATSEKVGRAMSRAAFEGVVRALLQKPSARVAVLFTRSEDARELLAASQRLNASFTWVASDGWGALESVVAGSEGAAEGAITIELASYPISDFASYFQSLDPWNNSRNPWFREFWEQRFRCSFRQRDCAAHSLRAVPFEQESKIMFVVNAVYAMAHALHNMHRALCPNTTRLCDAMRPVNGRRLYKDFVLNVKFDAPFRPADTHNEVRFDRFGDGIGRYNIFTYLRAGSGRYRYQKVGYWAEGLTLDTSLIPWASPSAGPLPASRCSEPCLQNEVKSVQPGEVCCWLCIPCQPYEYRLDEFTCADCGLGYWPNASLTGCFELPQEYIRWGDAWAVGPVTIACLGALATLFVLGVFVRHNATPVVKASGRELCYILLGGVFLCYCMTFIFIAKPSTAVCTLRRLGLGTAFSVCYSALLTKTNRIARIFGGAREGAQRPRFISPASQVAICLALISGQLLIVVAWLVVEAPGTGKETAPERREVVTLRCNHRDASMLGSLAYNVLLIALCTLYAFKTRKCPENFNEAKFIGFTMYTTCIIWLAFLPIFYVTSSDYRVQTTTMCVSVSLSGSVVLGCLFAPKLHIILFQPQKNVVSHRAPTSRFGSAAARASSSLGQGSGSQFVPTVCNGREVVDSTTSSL
T2 sequence (Q14832 23-879): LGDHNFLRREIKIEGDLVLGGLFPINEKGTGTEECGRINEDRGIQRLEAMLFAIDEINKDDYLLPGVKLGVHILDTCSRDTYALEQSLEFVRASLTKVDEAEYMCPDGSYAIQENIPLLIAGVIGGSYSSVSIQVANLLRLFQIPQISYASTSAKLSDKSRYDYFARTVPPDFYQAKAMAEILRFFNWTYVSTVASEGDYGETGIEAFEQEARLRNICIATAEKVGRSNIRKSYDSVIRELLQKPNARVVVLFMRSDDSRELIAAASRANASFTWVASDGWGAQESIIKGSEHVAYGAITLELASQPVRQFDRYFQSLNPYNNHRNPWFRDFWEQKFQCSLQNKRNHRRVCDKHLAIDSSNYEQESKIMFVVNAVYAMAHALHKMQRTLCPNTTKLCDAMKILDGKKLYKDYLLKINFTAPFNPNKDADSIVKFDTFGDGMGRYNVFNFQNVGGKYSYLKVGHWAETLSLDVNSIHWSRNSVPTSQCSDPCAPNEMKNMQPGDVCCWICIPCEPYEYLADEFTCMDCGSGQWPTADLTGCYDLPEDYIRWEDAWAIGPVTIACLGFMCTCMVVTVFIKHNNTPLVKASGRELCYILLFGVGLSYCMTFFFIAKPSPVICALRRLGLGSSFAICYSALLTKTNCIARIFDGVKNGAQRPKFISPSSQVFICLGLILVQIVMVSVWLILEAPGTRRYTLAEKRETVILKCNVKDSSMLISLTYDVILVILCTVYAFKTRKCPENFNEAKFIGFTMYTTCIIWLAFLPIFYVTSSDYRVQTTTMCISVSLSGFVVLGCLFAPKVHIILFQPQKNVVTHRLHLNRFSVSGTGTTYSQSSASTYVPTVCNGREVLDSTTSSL

Cc1cc(-c2cccc(C3=Nc4cc(C)c(C(F)(F)F)cc4NC(=O)C3)c2)cc(C)n1 [RO4491533]
hypolocomotor effect of mGlu2/3 agonist (LY379268) [1]: reversed | immobility time in the FST (C57Bl6/J mice): dose-dependently reduced | activity in the tail suspension test (Helpless (H) mice): active

CNCCC(Oc1ccc(C(F)(F)F)cc1)c1ccccc1 (stereo not drawn) [fluoxetine]
antidepressant effect in helpless mice (Helpless (H) mice; chronic (21 days) treatment): full antidepressant effect

CCS(=O)(=O)N(Cc1cccnc1)c1cccc(-c2ccc(C#N)cc2)c1 [LY566332]
Aβ-induced neurodegeneration [2]: amplified

N[C@](CC1c2ccccc2Oc2ccccc21)(C(=O)O)[C@H]1C[C@@H]1C(=O)O [LY341495]
Antidepressant-like effects in rat forced swim test (rat): Antidepressant-like effects | Antidepressant-like effects in mouse tail-suspension test (mouse): Antidepressant-like effects | hypolocomotor effect of mGlu2/3 agonist (LY379268) [1]: achieved the same result | immobility time in the FST (C57Bl6/J mice): dose-dependently reduced | activity in the tail suspension test (Helpless (H) mice): active | antidepressant effect in helpless mice (Helpless (H) mice; acute administration): potent antidepressant effect | marble-burying behavior (mice): significantly reduce | Aβ-induced neurodegeneration [2]: prevented

CN1C(=O)CN=C(c2ccccc2)c2cc(Cl)ccc21 [diazepam]
freezing behavior [3]: significantly decreased

CCCCCCCOC(=O)[C@@]1(F)[C@@H]2C[C@@H](OCc3ccc(Cl)c(Cl)c3)[C@@](N)(C(=O)O)[C@@H]21 [BCI-838]
levels of monomeric and oAβ peptides in the hippocampus and cortex (group II mGlu receptors; three months of treatment, two AD mouse models): decreased | Dutch APP transgene-associated learning and memory impairment (group II mGlu receptors; three months of treatment): reversed | anxiolytic effects (group II mGlu receptors; three months of treatment): anxiolytic effects | hippocampal progenitor cell proliferation (group II mGlu receptors; wild-type and Alzheimer's diseased mice, 3 months): stimulated

N[C@]1(C(=O)O)[C@H]2[C@@H](C[C@H]1OCc1ccc(Cl)c(Cl)c1)[C@]2(F)C(=O)O [BCI-632]
time for which brain concentration was sufficient to inhibit group II mGlu receptors (group II mGlu receptors; active metabolite after once-daily oral dosing of prodrug BCI-838): 22 h

N[C@]1(C(=O)O)[C@H]2[C@@H](C[C@H]1OCc1ccc(Cl)c(Cl)c1)[C@]2(F)C(=O)O [MGS0039]
Antidepressant-like effects in rat forced swim test (rat): Antidepressant-like effects | Antidepressant-like effects in mouse tail-suspension test (mouse): Antidepressant-like effects | number of escape failures [4]: significantly reduced | hyperactivity in the open field test [5]: attenuated | learning deficit in the passive avoidance test [5]: attenuated | increased immobility in the FST [6]: reversed | marble-burying behavior (mice): reduced | spontaneous locomotor activity (mice): no significant change | freezing behavior [3]: significantly decreased

Cc1nc(COc2cc3c(cc2-c2ccccc2C#N)C(=O)NC3)cs1 [Compound 20, 2-(6-((2-methylthiazol-4-yl)methoxy)-3-oxoisoindolin-5-yl)benzonitrile]
IC50 (human mGlu2): 189 nM | Human mGlu3 GIRK IC50 (nM) (human mGlu3): Inactive
